Compound | melting point
Cc1ccc(CNC(=O)c2cccc(C#N)c2)cc1 | 134 to 136 °C
CCOc1ccc(S(N)(=O)=O)cc1Br | 139 to 141 °C
CC(C(O)c1ccccc1)N(C)S(=O)(=O)c1ccc([N+](=O)[O-])cc1 (centres undefined) | 132 to 134 °C
Clc1ccc(Cl)c(-c2cc[nH]n2)c1 | 143 to 145 °C
Cc1ccc(N2CCc3c(N)cccc3C2)nn1 | 144 to 146 °C
O=C(O)c1cnc(Cc2ccccc2)s1 | 199 to 201 °C
O=C(O)c1ccc(CN2CCCCC2=O)cc1 | 181 to 183 °C
O=C(O)CCNS(=O)(=O)c1ccc2c(c1)OCCCO2 | 200 to 205 °C
N#CC1(C(=O)O)CCc2ccccc2C1 (centres undefined) | 123 to 125 °C
O=C(CCCl)NCC(=O)c1ccccc1 | 120 to 122 °C
N#Cc1cnc2ccccc2c1N1CCNCC1 | 160 to 162 °C
CCOC(=O)c1sc2cccc(F)c2c1CBr | 133 to 135 °C
O=C1CC2(CCCC2)C(=O)O1 | 33 to 35 °C
CCc1c[nH]c(S)n1 | 163 to 165 °C
CC(C)(C)Oc1ncccc1O | 86 to 88 °C
CCOc1cc(C(=O)O)ccc1C | 173 to 175 °C
CS(=O)(=O)OCC1CCOCC1 | 61 to 63 °C
Clc1ccc(C2CC2)nn1 | 103 to 105 °C
COc1ccc(-c2ncc(C(=O)O)s2)cc1 | 239 to 241 °C
FC(F)(F)c1nnc2ccc(Cl)nn12 | 69 to 71 °C
COC(=O)c1cccc(Oc2ccnc(Cl)n2)c1 | 117 to 119 °C
NC(=S)Cc1cccc(F)c1 | 69 to 71 °C
COc1ccc(C(=O)O)nc1I | 189 to 191 °C
Cc1ccccc1-n1c(C)cc(C(=O)O)c1C | 127 to 129 °C

Compound | melting point
NCCC(=O)N1CCN(c2ncccn2)CC1 | 87 to 89 °C
CCOC(=O)CNc1ccc(F)cc1 | 73 to 77 °C
O=C(O)COc1ccccc1C(F)(F)F | 151 to 153 °C
CC1(C)NC(=O)N(CCBr)C1=O | 97 to 99 °C
ON=Cc1ccncn1 | 150 to 152 °C
Cc1cc(Oc2ncccc2C#N)ccc1N | 158 to 160 °C
CNC1CCCN(c2ccccc2)C1=O (centres undefined) | 76 to 78 °C
C=CCNC(=S)N1CCOCC1 | 61 to 63 °C
COC(=O)c1c(C)n(C2CC2)c2ccc(O)cc12 | 193 to 195 °C
CCn1c(C2CCN(C(=O)OC(C)(C)C)CC2)n[nH]c1=O | 219 to 221 °C
O=C(O)C=Cc1cncc(O)c1 | 243 to 245 °C
N#Cc1ccc(CSCC(=O)O)cc1 | 86 to 88 °C
NC(Cc1c[nH]c2ccc([N+](=O)[O-])cc12)C(=O)O (centres undefined) | 259 to 261 °C
CC(C)C(NC(N)=O)C(=O)O (centres undefined) | 203 to 207 °C
Cc1nnc(NCCC(C)C)c2ccccc12 | 129 to 131 °C
COc1ccc2c(CC(=O)O)cc(=O)oc2c1 | 183 to 187 °C
Cc1nn(C(F)F)c(C)c1CO | 86 to 88 °C
CC(C)C(=O)Nc1cc2ccccc2cc1C(=O)O | 203 to 205 °C
COc1cc(C(=O)O)ccc1OCC(=O)NC(C)C | 193 to 195 °C
Cn1c(-c2ccccc2)cnc1SCC(=O)O | 199 to 201 °C
c1ccc(COc2ccc3cn[nH]c3c2)cc1 | 166 to 168 °C
O=C(O)CCCN1CCOC1=O | 73 to 75 °C
O=C(Cc1ccc(Cl)cc1)N1CCNCC1 | 105 to 107 °C
Cc1nc(N(C)C)sc1C(=O)O | 99 to 101 °C

Compound | melting point
Nc1ccc(Cl)c(S(=O)(=O)N2CCOCC2)c1 | 157 to 159 °C
Nc1ccccc1CN1CCC(O)CC1 | 112 to 114 °C
CC(=O)NCc1ccc(S(N)(=O)=O)cc1 | 170 to 172 °C
O=C(O)C=CC(=O)NCc1ccncc1 | 139 to 141 °C
CCn1c(N)nc2cc(C#N)ccc21 | 189 to 191 °C
O=C(O)CCc1ccsc1 | 54 to 58 °C
CCc1cc2c(CCl)cc(=O)oc2cc1O | 216 to 218 °C
COc1ccc(C(=O)c2ccc(C)cc2)cc1 | 88 to 90 °C
CC1C(=O)NCCN1C(=O)c1ccccc1 (centres undefined) | 146 to 148 °C
Nc1nnc(C2CCCCC2)o1 | 222 to 224 °C
O=C(O)c1ccc(Cn2cccc2)cc1 | 161 to 163 °C
NCC(O)CN1CCOCC1 (centres undefined) | 36 to 40 °C
Cc1ccc2cc(C(=O)O)c(C)nc2c1 | 197 to 199 °C
O=c1[nH]cnc2cnc(Cl)cc12 | 309 to 311 °C
O=C(O)c1ccccc1NS(=O)(=O)c1ccc(Cl)c([N+](=O)[O-])c1 | 211 to 213 °C
O=[N+]([O-])c1ccc(NC2CCCC2)nc1 | 114 to 116 °C
COc1ccc(N)cc1NC(=O)C1CCCCC1 | 147 to 149 °C
Cc1cc(C)c2c(N)c(C(=O)NN)sc2n1 | 245 to 247 °C
CCc1nc(-c2ccc(C(=O)O)cc2)n[nH]1 | 229 to 231 °C
COc1cc(OC)cc(-c2cc(N)on2)c1 | 116 to 118 °C
Nc1ccc(Oc2ccncc2)c(Cl)c1 | 129 to 131 °C
Nc1ccc(C2(c3ccc(N)cc3)CCCCC2)cc1 | 110 to 112 °C
CCOC(=O)c1sc(N)c(C(N)=O)c1C | 197 to 199 °C
N[C@H]1CC[C@@H](CO)CC1 | 144 to 146 °C

Compound | melting point
COCc1nc(C(=O)O)cs1 | 106 to 108 °C
CC(C)CC(CCC(=O)O)C(=O)O (centres undefined) | 66 to 68 °C
O=C1NCCCC1C(F)(F)F (centres undefined) | 99 to 101 °C
COc1ccc(-c2[nH]c3ccc(F)cc3c2CCC(=O)O)cc1 | 134 to 138 °C
COCc1cccc2sc(N)nc12 | 139 to 141 °C
Nc1nc(-c2ccc3c(c2)OCCO3)cs1 | 180 to 182 °C
N#Cc1ncc(C(=O)O)cc1Br | 177 to 179 °C
NC(=O)CSc1nnc(S)s1 | 192 to 194 °C
O=C(O)CNC(=O)c1cc2ccccc2[nH]1 | 231 to 233 °C
Nc1ccn(-c2ccc(Cl)cc2Cl)n1 | 114 to 116 °C
NS(=O)(=O)c1cc(C(=O)O)cc2c1CCC2 | 299 to 301 °C
Nc1cc(N2CCOC2=O)ccc1F | 119 to 121 °C
CN(CC(=O)Nc1ccc(Cl)c(C(F)(F)F)c1)C(=O)CCl | 164 to 165 °C
CC1C(=O)NCCN1C(=O)c1ccc(Cl)s1 (centres undefined) | 149 to 151 °C
CC(C)(C)NS(=O)(=O)Cc1cccc(N)c1 | 101 to 103 °C
Cn1c(Cl)cnc1CC#N | 142 to 144 °C
O=C(O)c1nnn(-c2ccc(Br)cc2)c1C1CC1 | 176 to 178 °C
Fc1ccc(-n2nccc2Br)cc1 | 73 to 75 °C
CCC(NC(=O)OC(C)(C)C)(C(N)=O)C(C)C (centres undefined) | 157 to 159 °C
CCNc1nc2cc(Cl)ccc2s1 | 118 to 120 °C
NC(=O)C(N)c1ccc(Br)cc1 (centres undefined) | 119 to 121 °C
O=C1NCCCCC1Oc1ccc(Br)cc1 (centres undefined) | 176 to 178 °C
COc1cc(C=O)ccc1OCC(=O)N1CCCC1 | 117 to 119 °C
O=Cc1cccc(Cl)c1O | 52 to 54 °C

Compound | melting point
O=C(O)c1ncoc1-c1cccc(F)c1 | 169 to 171 °C
O=C(O)CCCSc1nc2ccccc2s1 | 103 to 105 °C
COC(=O)c1c[nH]cc1-c1ccc([N+](=O)[O-])cc1 | 244 to 246 °C
O=C(O)CCc1nc2sc3c(c2c(=O)[nH]1)CCCC3 | 140 to 142 °C
O=C(CN1CCNCC1)N1CCCc2ccccc21 | 64 to 66 °C
Nc1cccc2c1C(=O)N(C1CC1)C2=O | 159 to 161 °C
Cn1cc(S(N)(=O)=O)c(N)n1 | 162 to 164 °C
CC(C)Oc1cccc(CNC(=O)CCl)c1 | 69 to 71 °C
O=C(O)C1CC2CCCCC2N1C(=O)OCC1c2ccccc2-c2ccccc21 (centres undefined) | 169 to 171 °C
Nc1ccc(OCc2ccccn2)c(Cl)c1 | 91 to 93 °C
O=C(O)CCOc1cccnc1 | 174 to 176 °C
O=C(O)c1ccc(NC(=O)c2ccc(Br)o2)cc1 | 276 to 278 °C
CN(C)S(=O)(=O)c1ccc2c(c1)NCC2 | 121 to 123 °C
NC(=O)c1c[nH]c(C2CC2)n1 | 216 to 218 °C
CC(C)(C)OC(=O)NC(CCS(C)(=O)=O)C(=O)O (centres undefined) | 99 to 101 °C
O=C(O)CNc1ccc(C(=O)O)cc1 | 266 to 268 °C
Fc1ccc(-n2c(S)nnc2-c2ccncc2)cc1 | 165 to 175 °C
COc1ccc(NC(=O)CC#N)cc1Cl | 110 to 112 °C
O=C(O)C1(c2cccc(Cl)c2)CC1 | 135 to 137 °C
O=C1Nc2cc(Cl)ccc2C1=O | 264 to 266 °C
CC(C)c1cc(C(=O)O)nn1-c1ccccn1 | 146 to 148 °C
Nc1cc(-c2cc(Cl)cc(Cl)c2)[nH]n1 | 159 to 161 °C
N#Cc1ccc2c(c1)CC(=O)N2 | 249 to 251 °C
Cc1ccc(CNC(=O)C(C#N)=CN(C)C)cc1 | 135 to 137 °C

Compound | melting point
Nc1ccccc1C(=O)Nc1ccc2c(c1)OCCO2 | 117 to 119 °C
CN(CC(=O)Nc1ccccc1C(F)(F)F)C(=O)CCl | 123 to 125 °C
Cc1c(Cl)ccc2ccc(N)nc12 | 134 to 136 °C
CC(C)CCC(=O)NCCCS(N)(=O)=O | 90 to 92 °C
Cc1cc2c(cc1C)OC(C(=O)O)C2 (centres undefined) | 149 to 151 °C
Cc1ccc(C)c(N2N=C(C(=O)O)CCC2=O)c1 | 149 to 151 °C
C=CCNC(=O)NC(=O)C(C)Cl (centres undefined) | 68 to 70 °C
O=C(C(=O)N1CCOCC1)N1CCNCC1 | 127 to 129 °C
N#CCn1cc(Br)cn1 | 60 to 62 °C
Nc1cc(=O)[nH]n1-c1ccc(F)cc1 | 202 to 204 °C
C=Cc1nc(-c2ccc(Cl)cc2)no1 | 62 to 64 °C
Nc1c(C(=O)O)cc(Br)c2c1C(=O)c1ccccc1C2=O | 313 to 315 °C
CS(=O)(=O)NC1(C(=O)O)CCCCC1 | 114 to 116 °C
Cc1c(C(=O)O)oc2cc3c(cc12)CCC3 | 265 to 267 °C
O=C(CCl)NCc1ccc(Cl)cc1 | 107 to 109 °C
NS(=O)(=O)c1cccc(-n2cnnn2)c1 | 181 to 183 °C
O=C(O)c1cnoc1-c1ccccc1 | 149 to 151 °C
Nc1sc2c(c1C(=O)c1ccc(C(F)(F)F)cc1)CCC2 | 200 to 202 °C
C#CCOc1ccccc1C#N | 77 to 79 °C
Fc1cc(Br)cc2c(Cl)ccnc12 | 149 to 151 °C
Cn1cc(-c2nc3ccccn3c2N)cn1 | 149 to 151 °C
Ic1cnc2ccccn12 | 166 to 168 °C
CS(=O)(=O)NCCc1ccc(C(=O)CCl)s1 | 110 to 112 °C
CS(=O)(=O)N1CCCCC1C(=O)O (centres undefined) | 74 to 76 °C
